This note sets out measurements from patent US10202388B2, “Fused-ring compounds, pharmaceutical composition and uses thereof” (SHANGHAI DE NOVO PHARMATECH CO., LTD., priority 2015, dated 2019).

Chain of HeLa cell IDO1 (P14902 whole entry): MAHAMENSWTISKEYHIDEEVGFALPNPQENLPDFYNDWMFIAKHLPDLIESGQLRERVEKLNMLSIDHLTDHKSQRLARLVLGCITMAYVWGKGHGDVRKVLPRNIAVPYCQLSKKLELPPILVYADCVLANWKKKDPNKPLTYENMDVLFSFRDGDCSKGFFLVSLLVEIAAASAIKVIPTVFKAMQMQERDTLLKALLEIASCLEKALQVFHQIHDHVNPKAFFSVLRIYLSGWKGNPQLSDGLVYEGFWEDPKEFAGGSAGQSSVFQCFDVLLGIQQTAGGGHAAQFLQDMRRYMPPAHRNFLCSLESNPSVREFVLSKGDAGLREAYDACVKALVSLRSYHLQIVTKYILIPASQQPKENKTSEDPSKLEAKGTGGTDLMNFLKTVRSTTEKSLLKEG
Chain of Human recombinant IDO1 (P14902 whole entry): as above

The first experiment concerns the target Human recombinant IDO1 (Homo sapiens (Human), UniProt P14902). In words: IDO1 enzymatic assay (UV absorption at 321 nm). The experiment is classed as biochemical. Particulars: human recombinant IDO1, 80 min incubation, room temperature; read-out: hIDO1 IC50. The protocol: The detailed experimental method is as follow:
The compounds described in this disclosure were dissolved in 10% DMSO to predefined concentration. All of the reactions were conducted at room temperature in this disclosure. Human recombinant IDO1 (BPS Bioscience) was added so that its concentration was 200 nm in the reaction buffer solution (200 μL). […] 10 μL test compound solution was added into the above reaction solution (200 μL), so that the final concentration of DMSO in all reaction wells was 0.5%. % concentration was volume %. After 80 min incubation of the reaction solution, the UV absorbance was measured using TECAN Infinite M1000 plate reader. For the negative control (blank), 10 μl of the assay buffer was added instead of the IDO1
All reagents (excluding human recombinant IDO1) were purchased from Sigma Aldrich, MO, USA.
The percent activity in the presence of each compound was calculated according to the following equation: % activity=[(A−Ab)/(At−Ab)]×100, where A=the absorption signal in the presence of the compound, Ab=the absorption signal of blank, At=the absorption signal in the absence of the compound. […] The IC50 was calculated using non-linear regression in Graph Pad Prism® 4.
For the compound `OC1C2CC3CC1CC([C@@H](O)CC1c4c(F)cccc4-c4cncn41)(C3)C2` (some centres unmarked) [Compound 26B], the IC50 lay within 100 to 500 nM.

The target of a further experiment is HeLa cell IDO1 (Homo sapiens (Human), UniProt P14902). In words: HeLa cell based IDO1 inhibition assay (kynurenine readout, IFN-γ induced). Particulars: HeLa cells. The protocol: HeLa cell line was purchased from ATCC, cultured in MEM/EBSS medium supplemented with 10% FBS, penn-step (100,000 U/L), non-essential amino acid (0.1 Mm), sodium pyruvate (1.0 Mm). Cells were cultured at 37° C., 95% humidity and 5% CO2. […] The detailed experimental method is as follow:
25,000 HeLa cells were placed on 96-well plates. Each well contained 100 μl culture medium, subsequently IFN-γ and test compounds at specific concentrations (concentration range between 10 μM and 1 Nm, so that the final volume of culture medium was 200 μL) were added and IFN-γ was used to induce IDO1 expression. After incubation, 140 μL supernatant was transferred to 96-well plates. After adding 6.1 N TCA (10 μL), the plates were continuously incubated at 50° C. for 30 min, to hydrolyze N-formylkynurenine produced by IDO to kynurenine. The reaction solution was then centrifuged at 2500 rpm for 10 min to remove precipitate. 100 μL/well supernatant was then transferred to another 96-well plate. 100 μL of 2% (w/v) 4-N,N-dimethyl aminobenzaldehyde acetic acid solution was added and incubated at room temperature for 10 min. The yellow color derived from kynurenine was recorded by measuring absorbance at 480 nm using a microplate reader (TECAN Infinite M1000 Pro).
For the compound `CS(=O)(=O)Nc1ccc(S(=O)(=O)NC2C3CC4CC2CC(C(O)CC2c5c(F)cccc5-c5cncn52)(C4)C3)cc1` (centres unmarked) [Compound 87], the IC50 was 500 to 1000 nM.

As for `N#Cc1ccc(S(=O)(=O)NC2C3CC4CC2CC(C(O)CC2c5c(F)cccc5-c5cncn52)(C4)C3)cc1` (single isomer, unassigned) [Compound 69A], the IC50 is < 100 nM. As to `O=C(Nc1ccccc1)N1C2CC3CC1CC(C(O)CC1c4c(F)cccc4-c4cncn41)(C3)C2` (centres unmarked) [Compound 208], the IC50 was < 100 nM. As to `O=C(Nc1ccc(F)cc1)NC1C2CC3CC1CC(C(O)CC1c4c(F)cccc4-c4cncn41)(C3)C2` (centres unmarked) [Compound 93A], the concentration for half-maximal inhibition (IC50) was < 100 nM.

For the compound `O=S(=O)(NC1C2CC3CC1CC(C(O)CC1c4c(F)cccc4-c4cncn41)(C3)C2)c1ccccc1` (single isomer, unassigned) [Compound 47A], the IC50 was < 100 nM. Consider `CCS(=O)(=O)NC1C2CC3CC1CC(C(O)CC1c4c(F)cccc4-c4cncn41)(C3)C2` (centres unmarked) [Compound 66], for which the 50% inhibitory concentration (IC50) is < 100 nM. Still for that read-out and setting: the result for `CCS(=O)(=O)NC12CC3CC(C1)C(C(O)CC1c4ccccc4-c4cncn41)C(C3)C2` (centres unmarked) [Compound 167A] reads 100 to 500 nM; that for `CC1(O)C2CC3CC1CC(C(O)CC1c4ccccc4-c4cncn41)(C3)C2` (centres unmarked) [Compound 11A], < 100 nM. Regarding `O=C(Nc1ccccc1)NC1C2CC3CC1CC(C(O)CC1c4c(F)cccc4-c4cncn41)(C3)C2` (single isomer, unassigned) [Compound 55B], the IC50 is 100 to 500 nM.

`CC(=O)Nc1ccc(NC(=O)NC2C3CC4CC2CC(C(O)CC2c5ccccc5-c5cncn52)(C4)C3)cc1` (centres unmarked) [Compound 102]: the IC50 lay in the range of 1000 to 10000 nM. The same measure, in the same setting: the result for `O=S(=O)(NC1C2CC3CC1CC(C(O)CC1c4c(F)cccc4-c4cncn41)(C3)C2)C1CC1` (centres unmarked) [Compound 81A] reads < 100 nM; that for `CS(=O)(=O)c1ccc(NC(=O)NC2C3CC4CC2CC(C(O)CC2c5c(F)cccc5-c5cncn52)(C4)C3)cc1` (centres unmarked) [Compound 101], 100 to 500 nM. On the same count and under the same terms, the result for `N#Cc1ccc(S(=O)(=O)NC2C3CC4CC2CC(C(O)CC2c5c(F)cccc5-c5cncn52)(C4)C3)cc1` (single isomer, unassigned) [Compound 69B] reads 500 to 1000 nM; that for `CS(=O)(=O)NC12CC3CC(C1)C(C(O)CC1c4ccccc4-c4cncn41)C(C3)C2` (single isomer, unassigned) [Compound 168B], 1000 to 10000 nM. Consider `OC(CC1c2c(F)cccc2-c2cncn21)C12CC3CC(C1)C(Nc1nc4ccccc4o1)C(C3)C2` (centres unmarked) [Compound 124A], for which the half-inhibitory concentration (IC50) was < 100 nM. Regarding `N#Cc1ccc(S(=O)(=O)NC23CC4CC(C2)C(C(O)CC2c5ccccc5-c5cncn52)C(C4)C3)cc1` (single isomer, unassigned) [Compound 165B], the IC50 fell in the range of 500 to 1000 nM. As to `CS(=O)(=O)NC12CC3CC(C1)C(C(O)CC1c4ccccc4-c4cncn41)C(C3)C2` (single isomer, unassigned) [Compound 168A], the IC50 was < 100 nM. On to `N#Cc1ccc(NC(=O)NC2C3CC4CC2CC(C(O)CC2c5c(F)cccc5-c5cncn52)(C4)C3)cc1` (centres unmarked) [Compound 100], for which the IC50 was < 100 nM. With `N#Cc1ccc(S(=O)(=O)NC23CC4CC(C2)C(C(O)CC2c5ccccc5-c5cncn52)C(C4)C3)cc1` (single isomer, unassigned) [Compound 165A], the IC50 is < 100 nM.

On to `OC(CC1c2ccccc2-c2cncn21)C12CC3CC(C1)C(Nc1nc4ccccc4s1)C(C3)C2` (single isomer, unassigned) [Compound 125A], for which the IC50 was < 100 nM. For `O=C(Nc1ccc(F)c(F)c1)NC1C2CC3CC1CC(C(O)CC1c4c(F)cccc4-c4cncn41)(C3)C2` (centres unmarked) [Compound 108A], the half-inhibitory concentration (IC50) was < 100 nM. Turning to `O=C(Nc1ccccc1)NC1C2CC3CC1CC(C(O)CC1c4c(F)cccc4-c4cncn41)(C3)C2` (single isomer, unassigned) [Compound 55A], the IC50 was < 100 nM.

Consider `O=S(=O)(CC1CCC1)NC1C2CC3CC1CC(C(O)CC1c4c(F)cccc4-c4cncn41)(C3)C2` (single isomer, unassigned) [Compound 67B], for which the half-inhibitory concentration (IC50) is < 100 nM.

Turning to `O=S(=O)(Cc1ccc(F)cc1)NC1C2CC3CC1CC(C(O)CC1c4c(F)cccc4-c4cncn41)(C3)C2` (centres unmarked) [Compound 71], the IC50 is < 100 nM. For the compound `O=S(=O)(NC1C2CC3CC1CC(C(O)CC1c4c(F)cccc4-c4cncn41)(C3)C2)c1ccccc1` (single isomer, unassigned) [Compound 47B], the IC50 is < 100 nM. In the case of `OC(CC1c2ccccc2-c2cncn21)C12CC3CC(C1)C(Nc1nc4ccccc4o1)C(C3)C2` (centres unmarked) [Compound 123], the IC50 is < 100 nM.

On to `O=C(Nc1ccccc1)NC12CC3CC(C1)C(C(O)CC1c4ccccc4-c4cncn41)C(C3)C2` (centres unmarked) [Compound 162A], for which the half-inhibitory concentration (IC50) fell in the range of 100 to 500 nM. Turning to `OC(CC1c2ccccc2-c2cncn21)C12CC3CC(C1)C(Nc1nc4ccccc4s1)C(C3)C2` (single isomer, unassigned) [Compound 125B], the half-maximal inhibitory concentration (IC50) was < 100 nM. For `Cc1ccc(NC(=O)NC2C3CC4CC2CC(C(O)CC2c5c(F)cccc5-c5cncn52)(C4)C3)cc1` (centres unmarked) [Compound 97], the half-inhibitory concentration (IC50) was < 100 nM.

In another experiment the target is HeLa cell based IDO1 (Homo sapiens (Human), UniProt P14902). In words: Three-point IDO1 cellular assay (HeLa, 10, 100 and 1000 nM). Particulars: HeLa cells, at 10 nM, 100 ng/mL IFN-γ, 18 hours. On the procedure: To perform the 3-point HeLa cell based IDO1 assay, HeLa cells were seeded at 25,000 cells per well into 96-well microplate in 100 μL of growth medium. Cells were incubated at 37° C. and 5% CO2 overnight. The next day 100 μL per well of diluted inhibitor in growth medium at 10, 100 and 1000 nM, respectively, was added at a final concentration of 100 ng/ML human IFN-γ. Cells were incubated at 37° C. in a CO2 incubator for 18 hours. […] The plate was incubated at 50° C. for 30 min to hydrolyze N-formylkynurenine produced by IDO1 to kynurenine. The plate was then centrifuged at 2500 rpm for 10 min to remove sediments. 100 μl of supernatant per well was transferred to another 96-well plate and mixed with 100 μL of 2% (w/v) 4-(Dimethylamino) benzaldehyde in acetic acid. The plate was incubated at room temperature for 10 minutes, the yellow color derived from kynurenine was recorded by measuring absorbance at 480 nm using a microplate reader (TECAN Infinite M1000 Pro). Cell based assays were performed in triplicate at each concentration. The absorbance data were analyzed using the computer software, Graphpad Prism. In the absence of the compound and presence of 100 ng/ML IFN-γ, the absorbance (At) in each data set was defined as 100%. The absorbance of medium blank (Ab) in each data set was defined as 0%. The percent absorbance in the presence of each compound was calculated according to the following equation: % Absorbance=(A−Ab)/(At−Ab), where A=the absorbance in the presence of the compound and IFN-γ, Ab=the absorbance of medium blank, and At=the absorbance in the absence of the compounds and presence of IFN-γ. The values of % absorbance versus the compound concentrations were then determined.
Chain of HeLa cell based IDO1 (P14902 whole entry): as above
For the compound `O=S(=O)(Cc1ccccc1)NC1C2CC3CC1CC(C(O)CC1c4ccccc4-c4cncn41)(C3)C2` (centres unmarked) [Compound 75A], the inhibition at 0.01 µM was > 50%.

Still in this experiment, the particulars now being: HeLa cells, at 100 nM, 100 ng/mL IFN-γ, 18 hours.
Take `O=S(=O)(CC1CCOCC1)NC1C2CC3CC1CC(C(O)CC1c4c(F)cccc4-c4cncn41)(C3)C2` (centres unmarked) [Compound 84A]: the “inhibition values of %” value is “greater than 50%”. Consider `O=C(CC1CCCCC1)NC12CC3CC(C1)C(C(O)CC1c4c(F)cccc4-c4cncn41)C(C3)C2` (centres unmarked) [Compound 192A], for which the inhibition at 0.1 µM is > 50%.

Staying with this experiment, now noted: HeLa cells, at 1000 nM, 100 ng/mL IFN-γ, 18 hours.
Regarding `O=C(NCC1CCOC1)NC1C2CC3CC1CC(C(O)CC1c4c(F)cccc4-c4cncn41)(C3)C2` (centres unmarked) [Compound 112A], the inhibition at 1 µM was > 50%. For `O=C(Nc1cccnc1)NC1C2CC3CC1CC(C(O)CC1c4c(F)cccc4-c4cncn41)(C3)C2` (centres unmarked) [Compound 56A], the inhibition at 1 µM was > 50%. `O=S(=O)(c1ccccc1)N1C2CC3CC1CC(C(O)CC1c4c(F)cccc4-c4cncn41)(C3)C2` (centres unmarked) [Compound 206]: the inhibition at 1 µM was > 50%. As for `O=S(=O)(CC1CCC1)NC1C2CC3CC1CC(C(O)CC1c4c(F)cccc4-c4cncn41)(C3)C2` (centres unmarked) [Compound 67A], the inhibition at 1 µM is > 50%. Take `OC(CC1c2c(F)cccc2-c2cncn21)C12CC3CC(C1)C(OCCN1CCOCC1)C(C3)C2` (centres unmarked) [Compound 135B]: the inhibition at 1 µM is > 50%. On to `O=C(Cc1ccc(F)cc1)N1C2CC3CC1CC(C(O)CC1c4c(F)cccc4-c4cncn41)(C3)C2` (centres unmarked) [Compound 207], for which the inhibition at 1 µM is > 50%. Still for that read-out and setting: the result for `OC(CC1c2c(F)cccc2-c2cncn21)C12CC3CC(C1)C(OCc1ccccc1)C(C3)C2` (centres unmarked) [Compound 133] reads > 50%. As to `ON=C1C2CC3CC1CC(C(O)CC1c4c(F)cccc4-c4cncn41)(C3)C2` (centres unmarked) [Compound 80], the “inhibition values of %” value was “greater than 50%”.
